This is an account of results in US7419966B2, “[5-carboxamido or 5-fluoro]-[2′,3′-unsaturated or 3′-modified]-pyrimidine nucleosides” (Emory University, priority 1995, dated 2008).

Like-named read-outs stand apart in the source and are kept apart here.

Assay type in all cases: cell-based
Data set [1] relates to hepatitis B virus in transfected HepG-2 (2.2.15) cells. The data set is described as follows: Anti-HBV activity in 2.2.15 cell cultures (HBV virion DNA and replicative intermediates). To be noted: for EC50 / EC90: Table 2, day 9; for activity against HBV, in words: text b71, b81. On the procedure:
The ability of the active compounds to inhibit the growth of virus in 2.2.15 cell cultures (HepG2 cells transformed with hepatitis virion) can be evaluated as described in detail below.
A summary and description of the assay for antiviral effects in this culture system and the analysis of HBV DNA has been described (Korba and Milman, 1991, Antiviral Res., 15:217). The antiviral evaluations were performed on two separate passages of cells. All wells, in all plates, were seeded at the same density and at the same time.
Due to the inherent variations in the levels of both intracellular and extracellular HBV DNA, only depressions greater than 3.5-fold (for HBV virion DNA) or 3.0-fold (for HBV DNA replication intermediates) from the average levels for these HBV DNA forms in untreated cells are considered to be statistically significant [P<0.05]. The levels of integrated HBV DNA in each cellular DNA preparation (which remain constant on a per cell basis in these experiments) were used to calculate the levels of intracellular HBV DNA forms, thereby ensuring that equal amounts of cellular DNA were compared between separate samples.
Typical values for extracellular HBV virion DNA in untreated cells ranged from 50 to 150 pg/ml culture medium (average of approximately 76 pg/ml). Intracellular HBV DNA replication intermediates in untreated cells ranged from 50 to 100 pg/μg cell DNA (average approximately 74 pg/μg cell DNA). In general, depressions in the levels of intracellular HBV DNA due to treatment with antiviral compounds are less pronounced, and occur more slowly, than depressions in the levels of HBV virion DNA (Korba and Milman, 1991, Antiviral Res., 15:217).

The subject of the next data set is HIV-1 (strain LAV). The data set is described as follows: Anti-HIV-1 activity in PHA-stimulated human PBM cells (reverse transcriptase readout). To be noted: Table 1; HIV-1LAI; human PBM cells; estimated 10% error factor; read-out: Anti-HIV-1 in PBMC EC50. On the procedure:
The ability of nucleosides to inhibit HIV can be measured by various experimental techniques. The technique used herein, and described in detail below, measures the inhibition of viral replication in phytohemagglutinin (PHA) stimulated human peripheral blood mononuclear (PBM) cells infected with HIV-1. (strain LAV). The amount of virus produced is determined by measuring the virus-coded reverse transcriptase enzyme. The amount of enzyme produced is proportional to the amount of virus produced.
Three-day-old phytohemagglutinin-stimulated PBM cells (10^6 cells/ml) from hepatitis B and HIV-1 seronegative healthy donors were infected with HIV-1 (strain LAV) at a concentration of about 100 times the 50% tissue culture infectious dose (TICD 50) per ml and cultured in the presence and absence of various concentrations of antiviral compounds.
Approximately one hour after infection, the medium, with the compound to be tested (2 times the final concentration in medium) or without compound, was added to the flasks (5 ml; final volume 10 ml). AZT was used as a positive control.
The cells were exposed to the virus (about 2×10^5 dpm/ml, as determined by reverse transcriptase assay) and then placed in a CO2 incubator. HIV-1 (strain LAV) was obtained from the Center for Disease Control, Atlanta, Ga. The methods used for culturing the PBM cells, harvesting the virus and determining the reverse transcriptase activity were those described by McDougal et al. (J. Immun. Meth. 76, 171-183, 1985) and Spira et al. (J. Clin. Meth. 25, 97-99, 1987), except that fungizone was not included in the medium (see Schinazi, et al., Antimicrob. Agents Chemother. 32, 1784-1787 (1988); Id., 34:1061-1067 (1990)).
On day 6, the cells and supernatant were transferred to a 15 ml tube and centrifuged at about 900 g for 10 minutes. Five ml of supernatant were removed and the virus was concentrated by centrifugation at 40,000 rpm for 30 minutes (Beckman 70.1 Ti rotor). The solubilized virus pellet was processed for determination of the levels of reverse transcriptase. Results are expressed in dpm/ml of sampled supernatant. Virus from smaller volumes of supernatant (1 ml) can also be concentrated by centrifugation prior to solubilization and determination of reverse transcriptase levels.

The subject of data set [2] is 2.2.15 cells (HepG2 cells transformed with hepatitis virion). The data set can be described thus: Toxicity in 2.2.15 cells by neutral red dye uptake. To be noted: for toxicity, in words: HBV assay; for IC50: Table 2, 2.2.15 cells, read-out: Cytotoxicity IC50 ± SD. On the procedure:
Toxicity analyses were performed to assess whether any observed antiviral effects were due to a general effect on cell viability. The method used herein was the measurement of the uptake of neutral red dye, a standard and widely used assay for cell viability in a variety of virus-host systems, including HSV and HIV. Toxicity analyses were performed in 96-well flat bottomed tissue culture plates. Cells for the toxicity analyses were cultured and treated with test compounds with the same schedule as described for the antiviral evaluations below. Each compound was tested at 4 concentrations, each in triplicate cultures (wells “A”, “B”, and “C”). Uptake of neutral red dye was used to determine the relative level of toxicity. The absorbance of internalized dye at 510 nm (Asin) was used for the quantitative analysis. Values are presented as a percentage of the average Asin values in 9 separate cultures of untreated cells maintained on the same 96-well plate as the test compounds. Dye uptake in the 9 control cultures on plate 5 ranged from 91.6% to 110.4%, and on plate 6 from 96.6% to 109%.

Another data set relates to Vero cells. The data set can be described thus: Toxicity in Vero cells. The following applies: Table 1.
Another data set has as its system CEM cells. The data set can be described thus: Toxicity in CEM cells. The following applies: Table 1.
The subject of data set [3] is uninfected human PBM cells. The data set can be described thus: Toxicity in mitogen-stimulated uninfected human PBM cells (cell count, trypan blue exclusion). To be noted: Table 1; uninfected human PBM cells, 6 days. On the procedure: Mitogen stimulated uninfected human PBM cells (3.8×10^5 cells/ml) were cultured in the presence and absence of drug under similar conditions as those used for the antiviral assay described above. The cells were counted after 6 days using a hemacytometer and the trypan blue exclusion method, as described by Schinazi et al., Antimicrobial Agents and Chemotherapy, 22(3), 499 (1982). […]

For a further data set, the system named is HSV-1F. The data set can be described thus: Anti-HSV-1 activity in Vero cells. The following applies: Table 1.
For the next data set, the system named is HIV-2ROD2. The data set can be described thus: Anti-HIV-2 activity in PBMC. The following applies: Table 1 footnote b; read-out: EC50 against HIV-2ROD2.
The test system of the next data set is SIVSMM. The data set can be described thus: Anti-SIV activity in PBMC. The following applies: Table 1 footnote b; read-out: EC50 against SIVSMM.
Where [4] appears, read: extracellular DNA, untreated control 102 pg/ml, read-out: HBV virion EC50 ± SD.
[5] abbreviates: extracellular DNA, untreated control 102 pg/ml, read-out: HBV virion EC90 ± SD.
Where [6] appears, read: replicative intermediates (intracellular DNA), untreated control 87 pg/μg cell DNA, read-out: HBV RI EC50 ± SD.
Setting [7] is: replicative intermediates (intracellular DNA), untreated control 87 pg/μg cell DNA, read-out: HBV RI EC90 ± SD.

Take “5-carboxylic acid amide-2′,3′-dideoxy-3′-thiacytidine [C Carboxamide (+)-β-D]”: the EC50 is 0.11 ± 0.012 µM in data set [1] (setting [4]), 0.5 ± 0.04 µM in data set [1] (setting [6]) and 8.5 µM in the data set on HIV-1 (strain LAV). The results for the EC90 in data set [1] (setting [5]) and in data set [1] (setting [7]) were 0.9 ± 0.1 µM and 3.8 ± 0.3 µM, respectively. Also, the “activity against HBV, in words” value in data set [1] is “significant activity against HBV”. Besides, the “toxicity, in words” value in [2] is “relatively nontoxic”. For the same compound, the IC50 in data set [2] was determined as 1120 ± 72 µM.

For `Nc1cn([C@@H]2CS[C@H](CO)O2)c(=O)nc1N` (racemic) [C Amino (±)-β-DL], the IC50 (in the data set on Vero cells; with CEM cells; in data set [3]) was above 100 µM in each case. In the data set with HIV-1 (strain LAV), the EC50 was 26.4 µM.

As for `N#Cc1cn([C@@H]2CS[C@H](CO)O2)c(=O)nc1N` (racemic) [C Cyano (±)-β-DL], the IC50 (in the data set with Vero cells; in the data set with CEM cells; in [3]) was above 100 µM each time. Further, the EC50 with HIV-1 (strain LAV) is above 100 µM.

For `CCc1cn([C@@H]2CS[C@H](CO)O2)c(=O)nc1N` (racemic) [C Ethyl (±)-β-DL], the IC50 (with Vero cells; in the data set with CEM cells; in [3]) was above 100 µM each time. Moreover, the half-maximal effective concentration (EC50) in the data set on HIV-1 (strain LAV) was 102 µM.

Regarding `C#Cc1cn([C@@H]2CS[C@H](CO)O2)c(=O)nc1N` (racemic) [C Ethynyl (±)-β-DL], the IC50 (in the data set on Vero cells; with CEM cells; in [3]) was above 100 µM each time. The half-maximal effective concentration (EC50) in the data set with HIV-1 (strain LAV) is above 100 µM.

In the case of `COC(=O)c1cn(C2CSC(CO)O2)c(=O)nc1N` (racemic) [C Methoxycarbonyl (±)-β-DL, 5-carboxylic acid methyl ester-2′,3′-dideoxy-3′-thiacytidine], the IC50 (in the data set with Vero cells; in the data set with CEM cells; in data set [3]) was above 100 µM each time. In the data set on HIV-1 (strain LAV), the EC50 is 38.9 µM.

Consider `CN(C)C(=O)c1cn([C@@H]2CS[C@H](CO)O2)c(=O)nc1N` (racemic) [C N,N-Dimethylaminoformyl (±)-β-DL], for which the half-inhibitory concentration (IC50) (in the data set on Vero cells; in the data set on CEM cells; in [3]) was above 100 µM in each case. Besides, the EC50 in the data set with HIV-1 (strain LAV) is above 100 µM.

With `CNC(=O)c1cn([C@@H]2CS[C@H](CO)O2)c(=O)nc1N` (racemic) [C N-Methylaminoformyl (±)-β-DL], the IC50 (in the data set on Vero cells; in the data set on CEM cells; in data set [3]) was above 100 µM in each case. Also, the EC50 in the data set on HIV-1 (strain LAV) was above 100 µM.

Turning to `Nc1nc(=O)n([C@@H]2CS[C@H](CO)O2)cc1[N+](=O)[O-]` (racemic) [C Nitro (±)-β-DL], the IC50 (in the data set with Vero cells; in the data set on CEM cells; in data set [3]) was above 100 µM throughout. In the data set on HIV-1 (strain LAV), the EC50 was 100 µM.

`Nc1cn([C@@H]2CS[C@H](CO)O2)c(=O)[nH]c1=O` (racemic) [U Amino (±)-β-DL]: the IC50 (with Vero cells; in the data set with CEM cells; in data set [3]) was above 100 µM each time. Moreover, the EC50 in the data set with HIV-1 (strain LAV) is 119 µM.

Consider `NC(=O)c1cn([C@@H]2CS[C@H](CO)O2)c(=O)[nH]c1=O` (racemic) [U Carboxamide (±)-β-DL, 5-carboxamide-2′,3′-dideoxy-3′-thiauridine], for which the IC50 (in the data set on Vero cells; with CEM cells; in [3]) was above 100 µM throughout. In the data set with HIV-1 (strain LAV), the EC50 was above 100 µM.

As for `N#Cc1cn([C@@H]2CS[C@H](CO)O2)c(=O)[nH]c1=O` (racemic) [U Cyano (±)-β-DL], the IC50 (in the data set with CEM cells; in [3]) was above 100 µM throughout. Besides, the EC50 with HIV-1 (strain LAV) is above 100 µM.

In the case of `CCc1cn([C@@H]2CS[C@H](CO)O2)c(=O)[nH]c1=O` (racemic) [U Ethyl (±)-β-DL], the IC50 (in the data set with Vero cells; in the data set with CEM cells; in data set [3]) was above 100 µM in each case. Further, in the data set on HIV-1 (strain LAV), the EC50 is above 100 µM.

With `C#Cc1cn([C@@H]2CS[C@H](CO)O2)c(=O)[nH]c1=O` (racemic) [U Ethynyl (±)-β-DL], the IC50 (in the data set on Vero cells; with CEM cells; in [3]) was above 100 µM throughout. In addition, the EC50 in the data set on HIV-1 (strain LAV) was 23.8 µM.

On to `COC(=O)c1cn([C@@H]2CS[C@H](CO)O2)c(=O)[nH]c1=O` (racemic) [U Methoxycarbonyl (±)-β-DL], for which the EC50 with HSV-1F and with HIV-1 (strain LAV) was above 100 µM in each case. Also, the IC50 (with Vero cells; with CEM cells; in data set [3]) was above 100 µM each time.

In the case of `O=c1[nH]c(=O)n([C@@H]2CS[C@H](CO)O2)cc1[N+](=O)[O-]` (racemic) [U Nitro (±)-β-DL], the IC50 (with Vero cells; with CEM cells; in data set [3]) was above 100 µM in each case. In addition, in the data set on HIV-1 (strain LAV), the EC50 is 122 µM.

As to `Nc1nc2c(ncn2COCCO)c(=O)[nH]1` [Acyclovir, reference compound], in the data set with HSV-1F (Human alphaherpesvirus 1, Vero), the EC50 came out at 0.04 µM.

With `NC(=O)c1cn([C@@H]2CS[C@H](CO)O2)c(=O)nc1N` [C Carboxamide (−)-β-L, 5-carboxylic acid amide-2′,3′-dideoxy-3′-thiacytidine], the IC50 is above 100 µM with Vero cells, above 100 µM in the data set on CEM cells, above 100 µM in [3] and 1750 ± 212 µM in data set [2]. For the same compound, the EC50 in data set [1] (setting [4]) was 0.29 ± 0.02 µM; in data set [1] (setting [6]), 1.3 ± 0.1 µM; with HIV-2ROD2 it was 1.6 µM; in the data set with SIVSMM it was 4 µM; in the data set on HIV-1 (strain LAV), 3.6 µM. For the same compound, the EC90 was determined as 1.5 ± 0.2 µM in data set [1] (setting [5]) and 9.9 ± 0.8 µM in [1] (setting [7]). Further, in data set [1], the “activity against HBV, in words” value is “significant activity against HBV”. Moreover, the “toxicity, in words” value in data set [2] is recorded as “relatively nontoxic”.

Broadly, the EC50 is the concentration giving half of the maximal effect. Broadly, the EC90 is the point of the concentration-response curve where the effect stands at 90%. In general, IC50 refers to the concentration that gives 50% inhibition.
